{"source": "ChEMBL document CHEMBL3882388", "about": "“Pharmaceutical Compositions Comprising Beta-Lactam Antibiotic, Sulbactam and Beta-Lactamase Inhibitor” (2014)", "key": {"[1]": {"target": "Beta-lactamase (Acinetobacter baumannii) (UniProt Q8RLA6)", "sequence (Q8RLA6 as listed by the source)": "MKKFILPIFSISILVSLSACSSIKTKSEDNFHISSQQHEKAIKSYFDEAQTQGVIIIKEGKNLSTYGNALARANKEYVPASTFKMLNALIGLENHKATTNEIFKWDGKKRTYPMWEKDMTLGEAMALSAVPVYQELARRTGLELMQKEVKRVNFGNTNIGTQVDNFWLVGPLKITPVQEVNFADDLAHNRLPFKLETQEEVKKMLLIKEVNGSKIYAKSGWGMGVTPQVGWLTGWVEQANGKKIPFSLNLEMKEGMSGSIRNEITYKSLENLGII", "experiment": "Inhibition of beta-lactamase in extended-spectrum b-lactamase producing Acinetobacter baumannii NCTC 13305 assessed as potentiation of cefpirome-induced antibacterial activity by measuring cefpirome MIC at 4 to 8 ug/ml incubated for 16 to 20 hrs by CLSI method"}, "[2]": {"target": "Beta-lactamase (Acinetobacter baumannii) (UniProt Q8RLA6)", "experiment": "Inhibition of beta-lactamase in extended-spectrum b-lactamase producing Acinetobacter baumannii S-8 assessed as potentiation of cefepime-induced antibacterial activity by measuring cefepime MIC at 4 to 8 ug/ml incubated for 16 to 20 hrs by CLSI method"}, "[3]": {"target": "Beta-lactamase (Acinetobacter baumannii) (UniProt Q8RLA6)", "experiment": "Inhibition of beta-lactamase in extended-spectrum b-lactamase producing Acinetobacter baumannii NCTC 13305 assessed as potentiation of cefepime-induced antibacterial activity by measuring cefepime MIC at 4 to 8 ug/ml incubated for 16 to 20 hrs by CLSI method"}, "[4]": {"target": "Beta-lactamase (Acinetobacter baumannii) (UniProt Q8RLA6)", "experiment": "Inhibition of beta-lactamase in extended-spectrum b-lactamase producing Acinetobacter baumannii S-10 assessed as potentiation of cefepime-induced antibacterial activity by measuring cefepime MIC at 4 to 8 ug/ml incubated for 16 to 20 hrs by CLSI method"}, "[5]": {"target": "Beta-lactamase (Acinetobacter baumannii) (UniProt Q8RLA6)", "experiment": "Inhibition of beta-lactamase in extended-spectrum b-lactamase producing Acinetobacter baumannii S-10 assessed as potentiation of cefpirome-induced antibacterial activity by measuring cefpirome MIC at 4 to 8 ug/ml incubated for 16 to 20 hrs by CLSI method"}, "[6]": {"target": "Beta-lactamase (Acinetobacter baumannii) (UniProt Q8RLA6)", "experiment": "Inhibition of beta-lactamase in extended-spectrum b-lactamase producing Acinetobacter baumannii S-15 assessed as potentiation of cefepime-induced antibacterial activity by measuring cefepime MIC at 4 to 8 ug/ml incubated for 16 to 20 hrs by CLSI method"}, "[7]": {"target": "Beta-lactamase (Acinetobacter baumannii) (UniProt Q8RLA6)", "experiment": "Inhibition of beta-lactamase in extended-spectrum b-lactamase producing Acinetobacter baumannii S-4 assessed as potentiation of cefpirome-induced antibacterial activity by measuring cefpirome MIC at 4 to 8 ug/ml incubated for 16 to 20 hrs by CLSI method"}, "[8]": {"target": "Beta-lactamase (Acinetobacter baumannii) (UniProt Q8RLA6)", "experiment": "Inhibition of beta-lactamase in extended-spectrum b-lactamase producing Acinetobacter baumannii S-8 assessed as potentiation of cefpirome-induced antibacterial activity by measuring cefpirome MIC at 4 to 8 ug/ml incubated for 16 to 20 hrs by CLSI method"}, "[9]": {"target": "Beta-lactamase (Acinetobacter baumannii) (UniProt Q8RLA6)", "experiment": "Inhibition of beta-lactamase in extended-spectrum b-lactamase producing Acinetobacter baumannii S-3 assessed as potentiation of cefepime-induced antibacterial activity by measuring cefepime MIC at 4 to 8 ug/ml incubated for 16 to 20 hrs by CLSI method"}, "[10]": {"target": "Beta-lactamase (Acinetobacter baumannii) (UniProt Q8RLA6)", "experiment": "Inhibition of beta-lactamase in extended-spectrum b-lactamase producing Acinetobacter baumannii NCTC 13301 assessed as potentiation of cefpirome-induced antibacterial activity by measuring cefpirome MIC at 4 to 8 ug/ml incubated for 16 to 20 hrs by CLSI method"}, "[11]": {"target": "Beta-lactamase (Acinetobacter baumannii) (UniProt Q8RLA6)", "experiment": "Inhibition of beta-lactamase in extended-spectrum b-lactamase producing Acinetobacter baumannii NCTC 13304 assessed as potentiation of cefpirome-induced antibacterial activity by measuring cefpirome MIC at 4 to 8 ug/ml incubated for 16 to 20 hrs by CLSI method"}, "[12]": {"target": "Beta-lactamase (Acinetobacter baumannii) (UniProt Q8RLA6)", "experiment": "Inhibition of beta-lactamase in extended-spectrum b-lactamase producing Acinetobacter baumannii NCTC 13301 assessed as potentiation of cefepime-induced antibacterial activity by measuring cefepime MIC at 4 to 8 ug/ml incubated for 16 to 20 hrs by CLSI method"}, "[13]": {"target": "Beta-lactamase (Acinetobacter baumannii) (UniProt Q8RLA6)", "experiment": "Inhibition of beta-lactamase in extended-spectrum b-lactamase producing Acinetobacter baumannii S-15 assessed as potentiation of cefpirome-induced antibacterial activity by measuring cefpirome MIC at 4 to 8 ug/ml incubated for 16 to 20 hrs by CLSI method"}, "[14]": {"target": "Beta-lactamase (Acinetobacter baumannii) (UniProt Q8RLA6)", "experiment": "Inhibition of beta-lactamase in extended-spectrum b-lactamase producing Acinetobacter baumannii NCTC 13304 assessed as potentiation of cefepime-induced antibacterial activity by measuring cefepime MIC at 4 to 8 ug/ml incubated for 16 to 20 hrs by CLSI method"}, "[15]": {"target": "Beta-lactamase (Acinetobacter baumannii) (UniProt Q8RLA6)", "experiment": "Inhibition of beta-lactamase in extended-spectrum b-lactamase producing Acinetobacter baumannii S-3 assessed as potentiation of cefpirome-induced antibacterial activity by measuring cefpirome MIC at 4 to 8 ug/ml incubated for 16 to 20 hrs by CLSI method"}, "[16]": {"target": "Beta-lactamase (Acinetobacter baumannii) (UniProt Q8RLA6)", "experiment": "Inhibition of beta-lactamase in extended-spectrum b-lactamase producing Acinetobacter baumannii S-4 assessed as potentiation of cefepime-induced antibacterial activity by measuring cefepime MIC at 4 to 8 ug/ml incubated for 16 to 20 hrs by CLSI method"}}, "data": [{"smiles": "CC1(C)[C@H](C(=O)O)N2C(=O)C[C@H]2S1(=O)=O", "values": [{"measurement": "MIC", "setting": "[1]", "result": 8, "unit": "µg/mL"}, {"measurement": "MIC", "setting": "[2]", "result": 32, "unit": "µg/mL"}, {"measurement": "MIC", "setting": "[3]", "result": 4, "unit": "µg/mL"}, {"measurement": "MIC", "setting": "[4]", "result": "> 32", "unit": "µg/mL"}, {"measurement": "MIC", "setting": "[5]", "result": "> 32", "unit": "µg/mL"}, {"measurement": "MIC", "setting": "[6]", "result": "> 32", "unit": "µg/mL"}, {"measurement": "MIC", "setting": "[7]", "result": "> 32", "unit": "µg/mL"}, {"measurement": "MIC", "setting": "[8]", "result": 32, "unit": "µg/mL"}, {"measurement": "MIC", "setting": "[9]", "result": "> 32", "unit": "µg/mL"}, {"measurement": "MIC", "setting": "[10]", "result": "> 32", "unit": "µg/mL"}, {"measurement": "MIC", "setting": "[11]", "result": 32, "unit": "µg/mL"}, {"measurement": "MIC", "setting": "[12]", "result": "> 32", "unit": "µg/mL"}, {"measurement": "MIC", "setting": "[13]", "result": 32, "unit": "µg/mL"}, {"measurement": "MIC", "setting": "[14]", "result": "> 32", "unit": "µg/mL"}, {"measurement": "MIC", "setting": "[15]", "result": "> 32", "unit": "µg/mL"}, {"measurement": "MIC", "setting": "[16]", "result": "> 32", "unit": "µg/mL"}]}]}
